row,melting point [°C],SMILES
1,209 to 211,Cc1nc(O)ccc1I
2,113 to 115,N#Cc1cc(C(F)(F)F)ccc1C(=O)O
3,176 to 178,Nc1ccc(N2CCSCC2)cc1C(=O)O
4,43 to 47,COCCOc1ccc(C(F)(F)F)cc1N
5,135 to 137,Cc1cc(C)cc(C=CC(=O)O)c1
6,189 to 191,Cc1n[nH]c2cc(N)ccc12
7,139 to 141,Nc1ccc(NC(=O)c2ccccc2)nc1
8,187 to 189,CNS(=O)(=O)c1ccc(N)cc1OC
9,57 to 59,Cc1ccc(Br)c(S(=O)(=O)Cl)c1
10,155 to 157,OCc1ccnc(-n2ccnc2)c1
11,169 to 171,O=C1CCc2cc(Br)ccc2N1
12,112 to 114,Cc1ccc(-c2nn(-c3ccccc3)cc2C=O)o1
13,156 to 158,NS(=O)(=O)c1ccc(NC(=O)CCl)cc1
14,212 to 214,O=C1CCc2cc(C(=O)CCl)ccc2N1
15,117 to 119,CS(=O)(=O)C1(C(=O)O)CCCC1
16,151 to 153,Nc1ccc(N2CCCC2)c(S(=O)(=O)Nc2cccc(C(F)(F)F)c2)c1
17,104 to 106,Nc1cc(F)c(Br)cc1N
18,279 to 281,O=C(O)C1CCN(C2=NS(=O)(=O)c3ccccc32)CC1
19,111 to 113,O=Cc1cccc(OCC(=O)O)c1
20,105 to 107,Cc1ccc(S(=O)(=O)OC(c2nc(C)cs2)C(F)(F)F)cc1 (configuration not stated)

row,melting point [°C],SMILES
1,188 to 190,CC1(c2ccc3c(c2)CCC3)NC(=O)NC1=O (configuration not stated)
2,59 to 61,CN(C)c1ccc(CNC(=O)CCl)cc1
3,159 to 161,CC(C)(NC(=O)NCc1cccc(Br)c1)C(=O)O
4,100 to 104,Cc1csc2nc(CCl)cc(=O)n12
5,64 to 66,N#CC1(C(=O)O)CCC1
6,92 to 94,Cc1nn(C)c(Cl)c1CO
7,96 to 98,Cc1ccc(S(=O)(=O)N2CCCC2C(=O)O)cc1 (configuration not stated)
8,73 to 77,CC(=O)c1ccc(S(=O)(=O)N2CCCCCC2)cc1
9,106 to 110,O=C(O)Cc1csc(-c2cccc(Br)c2)n1
10,179 to 182,O=C(O)c1cc(Br)ccc1F
11,140 to 142,NC(=S)N1CCCC1
12,244 to 246,Cc1nc(-c2ccccc2)oc1C(=O)O
13,206 to 208,CCCCc1ccc(NS(=O)(=O)c2cccc(C(=O)O)c2)cc1
14,103 to 105,Cn1cc(C(=O)c2cccc(F)c2)cn1
15,155 to 157,COC1(OC)C2(Cl)C3C(=O)C4C5C(=O)C3C1(Cl)C5(Cl)C42Cl (configuration not stated)
16,176 to 178,CC1(C)NC(=O)N(CCC(=O)NN)C1=O
17,120 to 122,COC(=O)Cc1ccc(Oc2ccnc(C#N)c2)cc1
18,47 to 51,COc1cc(C#N)ccc1OC(F)F
19,164 to 166,OCc1cc(Br)cc(CO)c1O
20,84 to 86,Nc1ccc(-c2nccn2C(F)F)cc1

row,melting point [°C],SMILES
1,104 to 106,O=C(c1ccccc1F)N1CCC(O)CC1
2,135 to 137,CC(Cl)C(=O)N1c2ccccc2CC1C (configuration not stated)
3,211 to 213,Nc1nnc(-c2ccsc2)s1
4,224 to 226,CCC1CCc2[nH]c(=O)c(C#N)cc2C1 (configuration not stated)
5,85 to 87,COC(=O)c1ccccc1CS(=O)(=O)Cl
6,187 to 189,Cc1cc(C)n(CC(=O)O)n1
7,259 to 261,O=C1Nc2cc(Br)ccc2C1=O
8,119 to 121,CNS(=O)(=O)c1ccccc1N1CCC(N)CC1
9,113 to 115,O=C(CCl)NC(=O)OCc1ccccc1
10,188 to 190,O=C1CS/C(=C/C(=O)C2CC2)N1
11,259 to 261,Cc1ccc(-n2ccnc2)c(C(=O)O)c1
12,171 to 173,CC(O)c1ccc2c(c1)CC(=O)N2 (configuration not stated)
13,96 to 98,COc1nc(C)cc(C)c1C#N
14,179 to 181,Sc1nnc(-c2cccnc2)n1Cc1ccccc1
15,204 to 206,Nc1ccc2oc(=O)[nH]c2c1
16,113 to 115,NCC1(C(N)=O)CCOCC1
17,51 to 53,N#CCOc1ccc(N)cc1
18,235 to 237,Cc1cc(NC(=O)Nc2cc(C)nn2C(C)(C)C)n(C(C)(C)C)n1
19,166 to 168,O=C(Nc1ccc(O)cc1)c1cccs1
20,202 to 204,O=C(O)C1CSC2(c3ccc(F)cc3)CCC(=O)N12 (configuration not stated)

# More lines, now with the values behind:
row,SMILES,melting point [°C]
1,O=C(O)c1ccc2c(c1)C(=O)N(C1CCS(=O)(=O)C1)C2=O (configuration not stated),239 to 241
2,COC(=O)c1cccc(N2CC(=O)NC2=O)c1,189 to 191
3,CN1C(=O)Cc2cc(C(=O)CCl)ccc21,199 to 201
4,FC(F)(F)c1n[nH]c2ccncc12,227 to 229
5,O=C(O)c1ccc(NC(=O)c2ccccc2I)cc1,275 to 277
6,CN(C)S(=O)(=O)c1ccccc1C(N)=S,154 to 156
7,NCc1ccc(N2CCN(c3ncccn3)CC2)c(F)c1,90 to 92
8,Nc1ccccc1N1CCC(O)CC1,117 to 119
9,COc1ccc(C2C(C(=O)O)CCC(=O)N2C)cc1 (configuration not stated),213 to 215
10,O=C1COc2ccc(C(=O)O)cc2N1,228 to 230
11,O=C(O)c1cc(Cl)ccc1OC(F)F,109 to 111
12,Cc1c(C(=O)O)nnn1-c1ccccc1,110 to 112
13,Cn1ncc(C(=O)O)c1Br,202 to 204
14,O=Cc1cc(Cl)cc(Cl)c1OC(F)F,51 to 53
15,CC(C)(C)Sc1ccc(C#N)cn1,69 to 71
16,CNC(=O)c1ccc(N)cc1Cl,147 to 149
17,CCOC(=O)C(O)c1ncc(Cl)n1C (configuration not stated),85 to 87
18,Clc1nc2cccnc2nc1Cl,143 to 145
19,O=C(O)c1ccccc1OCc1ccccc1Br,129 to 131
20,NC(=O)CCS(=O)(=O)CCCl,139 to 141
21,Sc1nnnn1-c1ccc2c(c1)OCO2,157 to 159

row,SMILES,melting point [°C]
1,O=C(O)C(=O)Cc1ccc(Cl)cc1,192 to 194
2,CC(=O)N(c1ccc(C(F)(F)F)cc1)c1nc(C=O)cs1,138 to 140
3,C=C(C)CNC(=S)NN,86 to 88
4,COc1ccc(NC(=O)CCl)c([N+](=O)[O-])c1,98 to 100
5,CS(=O)(=O)Nc1ccccc1C#N,99 to 101
6,CCN1CCNC1=O,75 to 77
7,CCOC(=O)Nc1ccc(C(=O)O)cc1,170 to 172
8,Cc1cc(-c2nnco2)ccc1[N+](=O)[O-],119 to 121
9,NC(=O)CS(=O)(=O)c1ccc(C(=O)O)cc1,255 to 257
10,NC(=O)Cc1noc2ccccc12,147 to 149
11,O=C(Nc1ccccc1CO)c1ccco1,95 to 97
12,CCCCCCCCCC(=O)N[C@@H](CCC(N)=O)C(=O)O,129 to 131
13,O=C1Nc2c(F)ccc(Br)c2C1=O,274 to 276
14,OCc1ccc(N2CCN(c3ncccn3)CC2)c(F)c1,114 to 116
15,NC(=O)Cn1cnc2cc(C(=O)O)ccc21,298 to 300
16,CCOCCCNC(=S)NCc1ccc(OC)cc1,39 to 41
17,O=C(O)c1cc2cc(Cl)cc(Br)c2o1,265 to 267
18,O=C(O)Cc1cc(=O)n(C2CCS(=O)(=O)C2)[nH]1 (configuration not stated),168 to 170
19,Nn1c(S)nnc1C1CCOC1 (configuration not stated),116 to 118
20,CC(=O)c1cccc(OCc2cn3ccccc3n2)c1,77 to 79
21,O=C(O)c1cccn1-c1cccc(I)c1,165 to 167

# From a melting point compilation (Tetko et al.)
